Tests used:
[1] = tested on: IL-6 of osteoblasts; assay: IL-6 level of osteoblasts (ELISA); format: cell-based, human
Method: Effect of a diethylphosphatoethyltrisilanol's precursor, the diethylphosphatoethyltriethoxysilane, on the IL-6 activity of osteoblasts.
(§1) Osteoblasts cultures are carried out from human bones sampled on cadavers 12 hours after the death. In aqueous buffered medium (pH 7.0-7.4), the diethylphosphatoethyltriethoxysilane releases the corresponding diethylphosphatoethyltrisilanol, which is the active silanol. IL-6 is quantified by the ELISA technique.

[2] = tested on: collagenase type activity of human chondrocytes; assay: collagenase type enzymatic activity of human chondrocytes culture (Cawston and Barrett method); format: cell-based; settings: no IL-1
Method: Effect of a diethylphosphatoethyltrisilanol's precursor, the diethylphosphatoethyltriethoxysilane, on the collagenase type activity of human chondrocytes culture.
as §1, with “Chondrocytes” for “Osteoblasts”, “cartilages” for “bones”, “The collagenase type enzymatic activity of these chondrocytes cultures” for “IL-6”, “following” for “by”, “Cawston and Barrett method.” for “ELISA technique.”

[3] = tested on: collagenase type activity of human chondrocytes; assay: collagenase type enzymatic activity of human chondrocytes cultures after IL-1 induction (Cawston and Barrett method); format: cell-based; settings: after IL-1 treatment
Method: Effect of a diethylphosphatoethyltrisilanol's precursor, the diethylphosphatoethyltriethoxysilane, on the collagenase type activity of human chondrocytes cultures after IL-1 induction.
(§2) Chondrocytes cultures are carried out from human cartilages sampled on cadavers 12 hours after the death. In aqueous buffered medium (pH 7.0-7.4), the diethylphosphatoethyltriethoxysilane releases the corresponding diethylphosphatoethyltrisilanol, which is the active silanol. The collagenase type enzymatic activity of these chondrocytes cultures is quantified following the Cawston and Barrett method after previous treatment of the cultures by IL-1.

[4] = tested on: chymotrypsine-like activity of epidermic extract; assay: chymotrypsine-like activity of an epidermic extract (BTEE degradation); format: biochemical
Method: Effect of a diethylphosphatoethyltrisilanol's precursor, the diethylphosphatoethyltriethoxysilane, on the chymotrypsine type activity of an epidermic extract.
After sampling from a cutaneous tissue, the epidermis is cut then put in an appropriate buffered solution. The solution is homogenized with Ultra Turax (40 C.) until a satisfying epidermic extract is obtained. The chymotrypsine-like activity of this extract is assessed by the measure of the N alpha-Benzoyl-L-Tyrosine Ethyl Ester (BTEE) degradation (specific synthetic substrate).

[5] = tested on: stromelysine type activity of human chondrocytes; assay: stromelysine type enzymatic activity of human chondrocytes culture (digestion of casein coupled with resorufine); format: cell-based; settings: no IL-1
Method: Effect of a diethylphosphatoethyltrisilanol's precursor, the diethylphosphatoethyltriethoxysilane, on the stromelysine type activity of human chondrocytes culture.
as §2, with “stromelysine” for “collagenase”, “by” for “following”, “the” for “the Cawston and Barrett”, “method” for “method after previous treatment”, “digestion of casein coupled with resorufine.” for “the cultures by IL-1.”

[6] = tested on: stromelysine type activity of human chondrocytes; assay: stromelysine type enzymatic activity of human chondrocytes culture after IL-1 induction (digestion of casein coupled with resorufine); format: cell-based; settings: after IL-1 treatment
Method: Effect of a diethylphosphatoethyltrisilanol's precursor, the diethylphosphatoethyltriethoxysilane, on the stromelysine type activity of human chondrocytes culture after IL-1 induction.
Human chondrocytes cultures are carried out from human cartilages sampled on cadavers 12 hours after the death. In aqueous buffered medium (pH 7.0-7.4), the diethylphosphatoethyltriethoxysilane releases the corresponding diethylphosphatoethyltrisilanol, which is the active silanol. The stromelysine type enzymatic activity of these chondrocytes cultures is quantified, after previous treatment of cultures with IL-1, by the method of digestion of casein coupled with resorufine.

[7] = tested on: osteoblasts alkaline phosphatase; assay: synthetic activity of osteoblasts (alkaline phosphatase activity); format: cell-based, human
Method: Effect of a diethylphosphatoethyltrisilanol's precursor, the diethylphosphatoethyltriethoxysilane, on the synthetic activity of osteoblasts.
as §1, with “The synthetic activity of these osteoblasts” for “IL-6”, “measure of the alkaline phosphatase activity.” for “ELISA technique.”

[8] = tested on: desquamine; assay: desquamine-like activity of an epidermic extract (hydrolysis of synthetic specific substrate of tPA); format: biochemical
Method: Effect of a diethylphosphatoethyltrisilanol's precursor, the diethylphosphatoethyltriethoxysilane, on the "desquame-like" activity of an epidermic extract.
Desquamine is obtained from an epidermic extract according to the Brysk and al (1994) method. The desquamine activity is evaluated by its ability to hydrolyze the synthetic specific substrate of the tPA for which it has a very strong affinity.

With `CCOP(=O)(CC[Si](O)(O)O)OCC` [diethylphosphatoethyltrisilanol] the “effect on osteoblasts IL-6 level, in words” value [1] was “dose-dependent decrease”, the “decrease of the osteoblasts IL-6 level (inhibition)” value ([1]; 100 μg/ml) was -49% and the “inhibition of "collagenase-like" activity of the chondrocytes” value ([2]; 500 μg/ml) was 30%. For the same compound, the “effect on "collagenase-like" activity of the chondrocytes, in words” value [2] was “dose-dependent decrease”, the “inhibition of "collagenase-like" activity of the chondrocytes” value ([3]; 500 μg/ml) was 21% and the “effect on "collagenase-like" activity of the chondrocytes, in words” value [3] was “dose-dependent decrease”. The “effect on "chymotrypsine-like" activity of the epidermic extract, in words” value [4] was “dose-dependant decrease”, the “inhibition of "chymotrypsine-like" activity of the epidermic extract” value ([4]; 400 μg/ml (printed 400 μ0 g/ml)) was 27% and the “inhibition of "collagenase-like" activity of the chondrocytes (stromelysine type activity test)” value ([5]; 500 μg/ml) was 37%. For the same compound, the “effect on "collagenase-like" activity of the chondrocytes (stromelysine type activity test), in words” value [5] was “dose-dependent decrease”, the “inhibition of "collagenase-like" activity of the chondrocytes (stromelysine type activity test)” value ([6]; 500 μg/ml) was 18% and the “effect on "collagenase-like" activity of the chondrocytes (stromelysine type activity test), in words” value [6] was “dose-dependent decrease”. For the same compound, the “effect on osteoblasts alkaline phosphatases activity, in words” value [7] was “dose-dependent increase” and the “increase of the osteoblasts alkaline phosphatases activity (printed "inhibition")” value ([7]; 100 μg/ml) was “+24%”.

With `C[Si](O)(O)O` [CH3 Si(OH)3] the “effect on "desquamine-like" activity of the epidermic extract, in words” value [8] was “dose-dependent inhibition” and the “inhibition of the "desquamine-like" activity of the epidermic extract” value ([8]; 300 μg/ml) was 25%.

Reference: patent publication US6001389A, “Compositions containing biologically active silicon” (priority 1997, dated 1999)
